Tests used:
[1] = system: ApoE-knockout mice; type: in vivo, mouse; conditions: Western Diet with Sulindac (300 mg/kg) for 17 weeks, examined four weeks after injury; vs control group
Text: We have developed a new mouse model of studying restenosis, in which the injury of the femoral artery is accomplished by the manipulation of wire stent which is introduced into the femoral artery first and then removed.
Briefly, the mouse is anesthetized with pentobarbital and the femoral artery is exposed by cutting the skin in the femoral region carefully. An angioplastz guide wire obtained from Advanced Cardiovascular Systems, Tameaila, Calif. of approximately 100 mm in length and 0.25 mm in diameter is then carefully inserted into the femoral artery, gently manipulated to simulate the arterial revascularization procedures used in humans, and removed. The bleeding is stopped by ligation. The skin fold is restored by sutures.
By one month after injury maximum restenosis is measured is achieved. The degree of restenosis is measured by two indices, the intima/media (I/M) ratio and the percentage of lumenal narrowing. […]
Thirty six week old ApoE-knockout mice were used and given the following dietary regimen and treatment: Group 1-western type diet (containing 42% by calories % fat and 0.15% (w/w) cholesterol); Group 2-western type diet plus aspirin at a concentration of 300 mg/kg diet/day and Group 3-western type diet plus Sulindac at a concentration of 300 mg/kg diet/day. […] The body weight was monitored on a weekly basis. […]

[2] = system: ApoE-deficient mice; experiment: Atherosclerotic lesions and plasma cholesterol in ApoE-deficient mice on western diet; type: in vivo, mouse; conditions: ApoE-deficient mice maintained on a western diet
Text: The Apo-E deficient mouse is the first mouse model of atherosclerosis with pathology similar to that of human atherosclerosis (Cell 1992, 71:343-353). Serum cholesterol levels in the mice maintained on a chow diet are five times higher than those of control littermates. Apo-E, which is made primarily in the liver, is a surface constituent of lipoprotein particles and a ligand for lipoprotein recognition and clearance by lipoprotein receptors (Science 1996, 272:685-688). ApoE-deficient mice have delayed clearance of lipoproteins, and on a low-cholesterol, low-fat diet, their cholesterol levels reach 400 to 600 mg/dl as a result of accumulation of chylomicron and very low-density lipoprotein (VLDL) remnants enriched in esterified and free cholesterol (Circulation 1993, 88:A9). These mice develop not only fatty streaks but also widespread fibrous plaque lesions at vascular sites typically affected in human atherosclerosis (Arterioscier. Thromb. 1994, 14;1873). Lesions form at the base of the aorta and the lesser curvature of the thoracic aorta, at the branch points of the carotid, intercostal, mesenteric, renal and iliac arteries, and in the proximal coronary, carotid, femoral, subclavian, and brachiocephalic arteries. Lesions begin at 5 to 6 weeks of age with monocyte attachment to the endothelium in lesion-prone areas and transendothelial migration. Fatty streak lesions begin to appear at 10 weeks, and intermediate lesions containing foam cells and spindle-shaped smooth muscle cells appear at 15 weeks. Fibrous plaques appear after 20 weeks and consist of a necrotic core covered by a fibrous cap of smooth muscle cells surrounded by elastic fibers and collagen. In older mice, fibrous plaques progress. In some advanced lesions there is partial destruction of underlying medial cells with occasional aneurysm formation, and in others calcification occurs in the fibrous tissue. Extensive fibro-proliferation can narrow the lumen, even to the point of occlusion of vessels.
Atherosclerosis can be exacerbated by a high-cholesterol or high-fat diet. This effect is mimicked in the ApoE-deficient mice when these mice are fed a western-type diet as described below in Section 6.
The Apolipoprotein E knock-out mouse model is a valuable animal model to test the effect of NSAIDs on apoptosis, proliferation, quiescence, migration and differentiation of cells that contribute to atherosclerosis. ApoE is an apoprotein on the surface of atherogenic lipoproteins that serves as a ligand for certain receptors in key tissues. ApoE-induced signaling via these receptors, particularly by the hepatic LDL receptor, induces the removal of ApoE-containing lipoprotein particles from the plasma. […]

[3] = system: HT-29 human colon adenocarcinoma cells; conditions: cited from earlier work
[4] = system: HCT-15 cultured colon cancer cell line; conditions: Biochem. Pharmacol. 1996, 52:237-245; cited from earlier work
[5] = system: cyclooxygenase; conditions: Adv. Drug Res. 1977, 12:90-245; cited from earlier work

## CC1=C(CC(=O)O)c2cc(F)ccc2/C1=C\c1ccc([S+](C)[O-])cc1 (stereo not drawn) [Sulindac]
[1]
  arterial narrowing after mechanical arterial injury: narrowing of the artery was not as marked
  smooth muscle cell proliferation after mechanical arterial injury: much less proliferation of smooth muscle cells
[2]
  development of atherosclerotic lesion / atherosclerotic index: significantly inhibited
  level of cholesterol in the plasma: reduced the level of cholesterol in the plasma
[3]
  morphology of HT-29 cells: altered morphology
  proliferation of HT-29 cells: reduced proliferation
[4]
  antiproliferative effect: antiproliferative effect independent of prostaglandin synthesis

## CC(=O)Oc1ccccc1C(=O)O [aspirin]
[2]
  development of atherosclerotic lesion / atherosclerotic index: inhibited the atherosclerotic index but to a lesser extent than observed in the group treated with Sulindac
  level of cholesterol in the plasma: reduced the level of cholesterol in the plasma
[3]
  morphology of HT-29 cells: altered morphology
  proliferation of HT-29 cells: reduced proliferation

## COc1ccc2c(c1)c(CC(=O)O)c(C)n2C(=O)c1ccc(Cl)cc1 [indomethacin]
[3]
  morphology of HT-29 cells: altered morphology
  proliferation of HT-29 cells: reduced proliferation

## CN1C(C(=O)Nc2ccccn2)=C(O)c2ccccc2S1(=O)=O [piroxicam]
[3]
  morphology of HT-29 cells: altered morphology
  proliferation of HT-29 cells: reduced proliferation
[4]
  antiproliferative effect: antiproliferative effect independent of prostaglandin synthesis

## CSc1ccc(/C=C2/C(C)=C(CC(=O)O)c3cc(F)ccc32)cc1 [sulfide, Sulindac sulfide]
[5]
  inhibition of cyclooxygenase: potent inhibitory agent of cyclooxygenase

## CC1=C(CC(=O)O)c2cc(F)ccc2/C1=C\c1ccc(S(C)(=O)=O)cc1 [sulfone, Sulindac sulfone]
[5]
  inhibition of cyclooxygenase: does not inhibit cyclooxygenase

Source: patent US6620853B1, “Methods and compositions for prevention and treatment of restenosis with non-steroidal anti-inflammatory drugs” (Mount Sinai School of Medicine, priority 1998, dated 2003)
